Source: ChEMBL document CHEMBL2073771, “Dibenzocyclooctadiene lignans: a class of novel inhibitors of multidrug resistance-associated protein 1” (Life Sci, 2006)

How the values were obtained:
Format in all cases: functional, cell-based
[1] = molecular target: T1, Multidrug resistance-associated protein 1 (Homo sapiens, UniProt P33527); assay: TP_TRANSPORTER: inhibition of DNR transport in HL60/ADR cells (overexpression of MRP1)
[2] = molecular target: T1, Multidrug resistance-associated protein 1; assay: TP_TRANSPORTER: inhibition of VP-16 transport in HL60/ADR cells (overexpression of MRP1)
[3] = molecular target: T1, Multidrug resistance-associated protein 1; assay: TP_TRANSPORTER: inhibition of DNR transport in HL60/MRP cells
[4] = molecular target: T1, Multidrug resistance-associated protein 1; assay: TP_TRANSPORTER: inhibition of VCR transport in HL60/ADR cells (overexpression of MRP1)
[5] = molecular target: T1, Multidrug resistance-associated protein 1; assay: TP_TRANSPORTER: inhibition of VCR transport in HL60/MRP cells
[6] = molecular target: T1, Multidrug resistance-associated protein 1; assay: TP_TRANSPORTER: inhibition of VP-16 transport in HL60/MRP cells

T1 sequence (P33527 whole entry): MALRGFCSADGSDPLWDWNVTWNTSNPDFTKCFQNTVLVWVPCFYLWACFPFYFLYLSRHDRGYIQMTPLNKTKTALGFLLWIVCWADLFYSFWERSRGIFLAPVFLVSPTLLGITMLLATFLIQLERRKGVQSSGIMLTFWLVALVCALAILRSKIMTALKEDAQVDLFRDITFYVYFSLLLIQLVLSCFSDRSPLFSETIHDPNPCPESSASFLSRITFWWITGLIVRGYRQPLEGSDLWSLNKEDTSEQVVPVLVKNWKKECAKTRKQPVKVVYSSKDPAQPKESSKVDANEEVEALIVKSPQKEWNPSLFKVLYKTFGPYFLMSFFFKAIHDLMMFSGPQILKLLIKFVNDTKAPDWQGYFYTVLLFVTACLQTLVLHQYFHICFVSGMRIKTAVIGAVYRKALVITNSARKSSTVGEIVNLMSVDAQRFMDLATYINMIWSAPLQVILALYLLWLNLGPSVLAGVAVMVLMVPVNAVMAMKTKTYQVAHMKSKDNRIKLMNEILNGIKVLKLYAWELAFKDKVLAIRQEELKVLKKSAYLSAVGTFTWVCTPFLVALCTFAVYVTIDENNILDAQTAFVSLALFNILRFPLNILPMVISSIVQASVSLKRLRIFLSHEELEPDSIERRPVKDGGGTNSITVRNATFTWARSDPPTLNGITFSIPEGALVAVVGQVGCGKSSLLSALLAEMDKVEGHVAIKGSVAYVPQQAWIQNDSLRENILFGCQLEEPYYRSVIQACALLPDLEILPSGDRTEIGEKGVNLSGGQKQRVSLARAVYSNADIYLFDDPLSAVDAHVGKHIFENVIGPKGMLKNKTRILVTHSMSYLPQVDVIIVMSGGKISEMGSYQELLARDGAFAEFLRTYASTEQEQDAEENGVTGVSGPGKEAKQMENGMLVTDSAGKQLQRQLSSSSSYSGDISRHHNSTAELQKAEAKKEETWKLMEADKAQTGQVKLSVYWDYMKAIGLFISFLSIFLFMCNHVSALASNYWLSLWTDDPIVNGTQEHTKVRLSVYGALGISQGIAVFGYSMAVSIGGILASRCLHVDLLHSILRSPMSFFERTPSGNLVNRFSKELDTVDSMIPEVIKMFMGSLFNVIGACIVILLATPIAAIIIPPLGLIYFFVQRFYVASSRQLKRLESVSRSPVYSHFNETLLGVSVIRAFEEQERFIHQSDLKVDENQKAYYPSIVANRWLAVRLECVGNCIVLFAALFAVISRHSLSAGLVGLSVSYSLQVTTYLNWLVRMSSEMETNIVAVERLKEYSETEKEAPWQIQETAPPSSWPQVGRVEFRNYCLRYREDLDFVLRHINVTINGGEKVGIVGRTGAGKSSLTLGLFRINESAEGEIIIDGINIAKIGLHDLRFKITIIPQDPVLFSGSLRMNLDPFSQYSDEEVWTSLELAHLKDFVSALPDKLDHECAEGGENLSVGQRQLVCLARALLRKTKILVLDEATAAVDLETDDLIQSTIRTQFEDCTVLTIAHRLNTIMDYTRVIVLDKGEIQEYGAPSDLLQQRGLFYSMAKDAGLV

SMILES	IC50 [1]	IC50 [2]	IC50 [3]	IC50 [4]	IC50 [5]	IC50 [6]
COc1cc2c(c(OC)c1OC)-c1c(cc3c(c1OC)OCO3)CC(C)C(C)C2 (centres undefined) [SCHISANDRIN B]	0.14 µM	4.19 µM	0.205 µM	0.00125 µM	0.00949 µM	2.25 µM
COc1cc2c(c(OC)c1OC)-c1c(cc(OC)c(OC)c1OC)C[C@](C)(O)[C@@H](C)C2 [SCHIZANDRIN]	0.125 µM	7.25 µM	0.217 µM	0.00116 µM	0.00809 µM	3.24 µM
COc1cc2c(c(OC)c1OC)-c1c(cc3c(c1OC)OCO3)C[C@H](C)[C@@](C)(O)C2 [GOMISIN A]	0.122 µM	7.77 µM	0.182 µM	0.00096 µM	0.00936 µM	2.76 µM
COc1cc2c(c(OC)c1OC)-c1c(cc(OC)c(OC)c1OC)C[C@H](C)[C@H](C)C2 [SCHISANDRIN A]	0.142 µM	4.89 µM	0.154 µM	0.00984 µM	0.00696 µM	2.34 µM
